Each structure is given as a SMILES string. In brackets after ≈: the same amount, converted by molar mass.

The conditions of this series: buffer; pH 7.4; 200.0 µM.
For the compound `O=C(COc1ccccc1Cl)Nc1nc(-c2ccncc2)cs1`, the kinetic solubility is 11.4 µg/mL (≈ 33 µM).
Compound `COc1ccc(NC(=O)NC2CCCCCCC2)c(OC)c1` returned a solubility (kinetic) of 5.5 µg/mL (≈ 18 µM).
For the compound `Cc1ccccc1NC(=O)C[n+]1cc(-c2ccccc2)n2c1CCC2.[Cl-]`, the solubility (kinetic) is more than 55.2 µg/mL.
Turning to `O=c1cc(-c2ccccc2)c2cc(Cl)ccc2[nH]1`, the solubility (kinetic) is less than 0.5 µg/mL.
`Cc1nc(=O)c(-c2ccccc2)c(C)n1-c1ccccc1Cl` showed a solubility (kinetic) of more than 46.6 µg/mL.
As to `CSc1nc(-c2cccs2)c(C#N)c(=O)[nH]1`, the solubility (kinetic) stood at 37.3 µg/mL (≈ 150 µM).
Compound `O=C(NCCCn1ccnc1)/C(=C/c1ccco1)NC(=O)c1ccco1` displayed a solubility (kinetic) of more than 53.2 µg/mL.
The figure for `CCNC(=O)NC(=O)CN(C)c1ccccc1` is more than 35.3 µg/mL; for `COCCCNc1nc(N)c([N+](=O)[O-])c(Nc2cc(OC)ccc2OC)n1` it is less than 0.1 µg/mL.
`N#Cc1ccc(COC(=O)c2ccccn2)cc1` gave a solubility (kinetic) of 30 µg/mL (≈ 126 µM).
Turning to `COc1ccc(C(=O)C(C)OC(=O)CNC(=O)c2ccco2)cc1` (stereo not given), the solubility (kinetic) is more than 49.7 µg/mL.
Compound `CCN(CC)C(C(=O)NC1CCCCC1)c1ccc(C)cc1` (stereo not given) displayed a solubility (kinetic) of more than 45.4 µg/mL.
The figure for `COc1cccc(OC)c1OCCN1CCCC1` is 32.4 µg/mL (≈ 129 µM); for `O=C(NCc1cccs1)c1cnc(Cl)c(Cl)c1` it is more than 43.1 µg/mL; for `O=C(Cc1ccccc1)NCc1cccnc1` it is 33.8 µg/mL (≈ 149 µM).
For the compound `O=C(Nc1ccccc1C(=O)Nc1ccccc1)c1ccco1`, the solubility (kinetic) worked out at 0.9 µg/mL (≈ 2.94 µM).
In the case of `COc1ccc(Cl)cc1NC(=S)N1CC(C)OC(C)C1` (stereo not given), the solubility (kinetic) was more than 47.2 µg/mL.
With `CCCOc1ccc(C(=O)NCC2OCCc3ccccc32)cc1OC` (stereo not given), the kinetic solubility is 4.7 µg/mL (≈ 13.2 µM).
`CC(C)S(=O)(=O)c1cnc(N2CCOCC2)nc1N` yielded a solubility (kinetic) of more than 43 µg/mL.
For `O=C(NCCc1cnc[nH]1)c1ccc(-c2ccccc2)cc1`, the kinetic solubility is 28.2 µg/mL (≈ 96.8 µM).
In turn, `Nc1nc(CCOc2ccc(F)cc2)cs1` registered a solubility (kinetic) of 34.3 µg/mL (≈ 144 µM).
For the compound `COc1ccc(C(=O)NCC(=O)OCC(=O)NCc2ccc3c(c2)OCO3)cc1`, the kinetic solubility is more than 60.1 µg/mL.
The compound `Cc1ccc(C2=NOC(=O)/C2=C\c2ccc(C)o2)cc1` had a solubility (kinetic) of 36.3 µg/mL (≈ 136 µM).
In the case of `CC(=O)C1=C(O)C(=O)N(c2ccc(F)cc2)C1c1ccc(C)cc1` (stereo not given), the kinetic solubility is more than 48.8 µg/mL.
`Cc1cccnc1NC(=O)C1CCC1` had a solubility (kinetic) of 23.4 µg/mL (≈ 123 µM).
`COc1ccc(NS(=O)(=O)c2ccc3c(c2)OCCO3)cc1OC`: the kinetic solubility is more than 52.7 µg/mL.
The figure for `COc1cc(/C=C2/SC(=O)NC2=O)ccc1OCc1ccccc1` is less than 0.7 µg/mL.
Compound `N#Cc1ccc(-c2csc(-c3ccno3)n2)cc1` yielded a kinetic solubility of 1.2 µg/mL (≈ 4.74 µM).
The figure for `Clc1ccc(-c2cn3ccccc3n2)cc1` is 2.5 µg/mL (≈ 10.9 µM); for `Cn1c(=O)oc2cc(S(=O)(=O)N3CCc4ccccc43)ccc21` it is 0.5 µg/mL (≈ 1.51 µM); for `CC(C)c1ccc(S(=O)(=O)N2CCN(C(=O)C3=COCCO3)CC2)cc1` it is 18.3 µg/mL (≈ 48.1 µM).
As for `O=C(O)c1cccc([N+](=O)[O-])c1C(=O)Nc1nc2ccccc2s1`, the solubility (kinetic) was more than 51.5 µg/mL.
Compound `CC12CCC(=O)N1C(C(=O)Nc1ccccc1F)CS2` (stereo not given) showed a kinetic solubility of more than 44.2 µg/mL.
In the case of `O=C(NC1CCN(CCc2c[nH]c3ccccc23)CC1)c1ccccc1`, the solubility (kinetic) stood at 51.7 µg/mL (≈ 149 µM).
The figure for `COC(=O)CC(c1ccc(C#N)cc1)n1c(C)ccc1C` (stereo not given) is more than 42.4 µg/mL; for `CN(C)C(=O)CN1c2cccc3cccc(c23)S1(=O)=O` it is more than 43.6 µg/mL.
`O=C(CSCc1c(F)cccc1Cl)NCCc1ccccc1` showed a kinetic solubility of 40.2 µg/mL (≈ 119 µM).
In the case of `COc1ccc(C2=CSC3=NCCN23)cc1[N+](=O)[O-]`, the solubility (kinetic) is 40.2 µg/mL (≈ 145 µM).
In turn, `O=C(O)c1nccnc1C(=O)Nc1ccc(Cl)cn1` displayed a kinetic solubility of 41.5 µg/mL (≈ 149 µM).
`COc1ccc(C)cc1NC(=S)N1CCOCC1` gave a solubility (kinetic) of more than 40 µg/mL.
Compound `CCCn1c(=O)c(-c2nc3ccccc3[nH]2)c(O)c2ccccc21` had a solubility (kinetic) of 0.4 µg/mL (≈ 1.25 µM).
Under `Cl.O=C(c1cc(-c2cccc3ccccc23)nc2ccccc12)N1CCN(CCO)CC1` stands more than 67.2 µg/mL; under `Cc1cc(C)c2c(N)c(C(=O)c3ccc(Br)cc3)oc2n1`, 1.2 µg/mL (≈ 3.48 µM).
`Cc1ccc(NC(=O)CSc2nccn2Cc2ccco2)c(C)c1` came in with a kinetic solubility of 46.8 µg/mL (≈ 137 µM).
`S=C(NCC1CCCO1)N1CCc2ccccc2C1` (stereo not given): the kinetic solubility was more than 41.5 µg/mL.
Under `Clc1ccccc1N1CCN(Cc2ccco2)CC1` stands 30.3 µg/mL (≈ 109 µM).
As for `Cc1ccc(-c2nc3ccccn3c2C=O)cc1`, the kinetic solubility came out at 8.5 µg/mL (≈ 36 µM).
In turn, `CN(CCN(C)C(C)(C)C)C(=O)C(c1ccccc1)c1ccccc1` displayed a solubility (kinetic) of 48 µg/mL (≈ 142 µM).
Under `CCOc1ccc(C(=O)NC2CCCCCCC2)cc1` stands 2.5 µg/mL (≈ 9.08 µM).
In the case of `Cc1cc(C)c(C#N)c(Nc2cccc(Br)c2)n1`, the solubility (kinetic) was less than 0.2 µg/mL.
Regarding `Cc1cc(NC(=O)C2CC(=O)N(c3ccc(F)cc3)C2)no1` (stereo not given), the kinetic solubility is more than 45.5 µg/mL.
For `O=c1c(-c2ccco2)[n+]([O-])c2ccccc2n1OCc1c(F)cccc1F`, the kinetic solubility turned out to be 3 µg/mL (≈ 8.1 µM).
As for `Cc1ccc(S(=O)(=O)NC2CC2)cc1[N+](=O)[O-]`, the kinetic solubility was more than 38.4 µg/mL.
`COC(=O)C1CN(C(=O)COc2ccc(C)cc2)c2ccccc2O1` (stereo not given) had a solubility (kinetic) of 49.1 µg/mL (≈ 144 µM).
Take `CC(=O)Nc1ccc(N2CCN(c3ccc(F)cc3)CC2)cc1`: the kinetic solubility stood at 0.7 µg/mL (≈ 2.23 µM).
`Nc1cc(=O)[nH]c(=O)n1-c1ccc(Cl)cc1`: the solubility (kinetic) was more than 35.6 µg/mL.
Take `NC(=O)c1ccc(NC(=O)COC(=O)C2CC3C=CC2C3)cc1` (stereo not given): the kinetic solubility is more than 47.2 µg/mL.
`CCCCNC(=O)CN1C(=O)NC(CCc2ccccc2)C1=O` (stereo not given) yielded a kinetic solubility of 33.8 µg/mL (≈ 106 µM).
Consider `O=C(COc1ccc(-n2ccnc2)cc1)Nc1cccc(F)c1`, for which the solubility (kinetic) worked out at 31.1 µg/mL (≈ 99.9 µM).
Under `COc1ccc(NC(=O)CCCC(=O)c2ccccc2)cc1` stands 7.1 µg/mL (≈ 23.9 µM); under `COc1ccc(/C=N/NC(=O)c2ccncc2)c(C(=O)O)c1OC`, more than 49.4 µg/mL.
In turn, `O=C(NCc1ccc2c(c1)OCO2)Nc1cccc(Cl)c1` returned a solubility (kinetic) of 1.3 µg/mL (≈ 4.27 µM).
In turn, `Cc1ccc(S(=O)(=O)N2CCN(C)CC2)c2nsnc12` gave a kinetic solubility of more than 46.9 µg/mL.
Compound `CN(C)/C=C/C(=O)c1ccc2noc(-c3ccccc3)c2c1` returned a kinetic solubility of 15.1 µg/mL (≈ 51.7 µM).
The figure for `O=C(CCCC(=O)c1ccccc1)NCCc1ccccc1` is more than 44.3 µg/mL; for `CN(CCc1ccccc1)Cc1nc(-c2cnccn2)no1` it is 44 µg/mL (≈ 149 µM); for `O=C(Nc1ccc2nc3n(c(=O)c2c1)CCCC3)c1ccccc1F` it is 48 µg/mL (≈ 142 µM).
`CC(C)(C)c1ccc(-c2cnco2)cc1` gave a kinetic solubility of 0.9 µg/mL (≈ 4.47 µM).
In turn, `CCc1nc(Nc2cccc(F)c2)c2oc3ccccc3c2n1.Cl` came in with a kinetic solubility of less than 0.2 µg/mL.
`CCCCc1nc(NCCO)c(C#N)c2c1CCCC2` returned a kinetic solubility of 3.6 µg/mL (≈ 13.2 µM).
With `CCN(CC)CC(=O)Nc1c(C#N)cnn1-c1ccccc1`, the kinetic solubility was more than 44.6 µg/mL.
Regarding `COc1cccc(C(=O)N2CCC(C(=O)N3CCN(C)CC3)CC2)c1`, the kinetic solubility was more than 51.8 µg/mL.
The compound `COc1cc(OC)cc(C(=O)N[C@H](C(=O)NC2=NCCS2)C(C)C)c1` had a solubility (kinetic) of more than 54.8 µg/mL.
In the case of `COc1ccc(NC(=O)CCCc2ccc(OC)c(C)c2)cc1`, the solubility (kinetic) stood at 2.1 µg/mL (≈ 6.7 µM).
For `CCOC(=O)/C(C#N)=C/C=C1\C=Cc2ccccc2N1CC`, the solubility (kinetic) came to 0.7 µg/mL (≈ 2.38 µM).
The compound `N#Cc1cccc(NC(=O)COC(=O)C2CCC2)c1` gave a kinetic solubility of more than 38.7 µg/mL.
The compound `O=C(NCc1ccccc1Cl)c1ccc2ccccc2n1` yielded a solubility (kinetic) of 6.2 µg/mL (≈ 20.9 µM).
Under `O=C(COC(=O)/C=C/c1cccc(Cl)c1)NCc1cccs1` stands 6.1 µg/mL (≈ 18.2 µM); under `Cc1cc(NC(=O)Cn2c(=O)oc3ccc(Cl)cc32)no1`, 1.5 µg/mL (≈ 4.87 µM).
`CC(C)C(OC(=O)c1nsc(Cl)c1Cl)C(=O)NCc1ccccc1` (stereo not given) displayed a solubility (kinetic) of 10 µg/mL (≈ 25.8 µM).
In turn, `CCCNS(=O)(=O)c1cc2c3c(c1)CCN3C(=O)CC2` registered a solubility (kinetic) of more than 44.2 µg/mL.
With `CCOC(=O)C1CCN(C(=O)COC(=O)c2ccccc2OCC)CC1`, the solubility (kinetic) was more than 54.5 µg/mL.
For the compound `CSc1nc2sc3c(c2c(=O)[nH]1)CC(C)(C)OC3`, the solubility (kinetic) turned out to be 13.9 µg/mL (≈ 49.2 µM).
The figure for `CCOc1ccc(NC(=S)c2ccc3ccccc3n2)cc1` is less than 0.3 µg/mL; for `Cc1cc(C)n(-c2c(C)[nH]c3ccccc23)n1` it is more than 33.8 µg/mL; for `CCn1c(C)cc(=O)cc1-c1ccc(Cl)cc1` it is more than 37.2 µg/mL.
Turning to `Cc1ccc(OCC(=O)NCCNC(=O)c2ccco2)cc1C`, the kinetic solubility was more than 47.5 µg/mL.
As to `CCN1C(=O)/C(=C\N(C)C)S/C1=N\S(=O)(=O)c1ccccc1`, the solubility (kinetic) stood at 49.3 µg/mL (≈ 145 µM).
`COc1ccc(Nc2nc(N)nc(CN3CCC(C)CC3)n2)cc1` gave a kinetic solubility of more than 49.3 µg/mL.
`Cc1ccc(-c2nc(N)sc2C)cc1` yielded a solubility (kinetic) of 30.2 µg/mL (≈ 148 µM).
For the compound `COc1cc([N+](=O)[O-])ccc1NC(=O)COC(=O)c1c[nH]c(=O)[nH]c1=O`, the solubility (kinetic) is more than 54.6 µg/mL.
In turn, `Cc1ccc2nc(NC(=O)COC(=O)c3cccnc3)sc2c1` displayed a kinetic solubility of 7.5 µg/mL (≈ 22.9 µM).
With `Cc1ccc(NC(=S)NC(=O)C2CC2)cc1Cl`, the solubility (kinetic) amounted to 2.9 µg/mL (≈ 10.8 µM).
With `CC(C)NS(=O)(=O)c1ccc(OCC(=O)NC(C)c2ccccc2)cc1` (stereo not given), the solubility (kinetic) is 53.1 µg/mL (≈ 141 µM).
The figure for `COC(CNc1ncnc2sc(-c3ccccc3)cc12)OC` is 35.9 µg/mL (≈ 114 µM); for `COc1cccc(NC(=S)Nc2ccc(Br)cc2Cl)c1` it is 4.6 µg/mL (≈ 12.4 µM); for `CC(C)CNC(=S)NC(=O)c1csc([N+](=O)[O-])c1` it is 2.8 µg/mL (≈ 9.74 µM).
The compound `Cc1ccc(CNC(=O)Nc2ccc(OC(F)(F)F)cc2)n1C` came in with a kinetic solubility of 9.4 µg/mL (≈ 28.7 µM).
`O=C(O)CN1C(=O)CC(c2ccccc2)CC1=O` came in with a kinetic solubility of 25 µg/mL (≈ 101 µM).
`Cc1ccc(NC(=O)COc2ccc3c(c2)OCO3)c(C)c1` displayed a solubility (kinetic) of 6.1 µg/mL (≈ 20.4 µM).
`CC1CCCCC1NC(=O)CCS(=O)(=O)c1ccc(Cl)cc1` (stereo not given) came in with a kinetic solubility of 22.8 µg/mL (≈ 66.3 µM).
The figure for `COc1ccccc1NC(=S)N(Cc1ccccc1)Cc1cccnc1` is 45.8 µg/mL (≈ 126 µM); for `N#Cc1sc2nccc(Nc3ccccc3)c2c1N` it is less than 0.1 µg/mL.
Turning to `NC(=O)COc1ccc2oc(=O)cc(-c3cc4ccccc4o3)c2c1`, the kinetic solubility came out at 1 µg/mL (≈ 2.98 µM).
For the compound `Cc1ccnc(SCC(=O)Nc2cccc(S(=O)(=O)N3CCOCC3)c2)n1`, the kinetic solubility is more than 61.3 µg/mL.

Broadly, the kinetic solubility is the concentration staying in solution when a stock, usually in DMSO, is diluted into the medium.
